# Experimental data reported in ChEMBL document CHEMBL4004803, “Syntheses and antibacterial activity of soluble 9-bromo substituted indolizinoquinoline-5,12-dione derivatives” (Eur J Med Chem, 2017).
# Key:
# Assay type in all cases: functional
# [1] = system: Staphylococcus aureus; experiment: Antibacterial activity against methicillin-resistant Staphylococcus aureus 1029025 clinical isolate after 20 to 24 hrs by two-fold microdilution method
# [2] = system: Staphylococcus aureus; experiment: Antibacterial activity against methicillin-resistant Staphylococcus aureus 12308 clinical isolate after 20 to 24 hrs by two-fold microdilution method
# [3] = system: Staphylococcus aureus; experiment: Antibacterial activity against methicillin-resistant Staphylococcus aureus 1023043 clinical isolate after 20 to 24 hrs by two-fold microdilution method
# [4] = system: Staphylococcus aureus; experiment: Antibacterial activity against methicillin-resistant Staphylococcus aureus 519030 clinical isolate after 20 to 24 hrs by two-fold microdilution method
# [5] = system: Staphylococcus aureus; experiment: Antibacterial activity against methicillin-resistant Staphylococcus aureus 109016 clinical isolate after 20 to 24 hrs by two-fold microdilution method
# [6] = system: Staphylococcus aureus; experiment: Antibacterial activity against methicillin-resistant Staphylococcus aureus 112430 clinical isolate after 20 to 24 hrs by two-fold microdilution method
# [7] = system: Staphylococcus aureus; experiment: Antibacterial activity against methicillin-resistant Staphylococcus aureus 1214023 clinical isolate after 20 to 24 hrs by two-fold microdilution method
# [8] = system: Staphylococcus aureus; experiment: Antibacterial activity against methicillin-resistant Staphylococcus aureus clinical isolate after 20 to 24 hrs by two-fold microdilution method
# [9] = system: Staphylococcus aureus; experiment: Antibacterial activity against methicillin-resistant Staphylococcus aureus 502025 clinical isolate after 20 to 24 hrs by two-fold microdilution method
# [10] = system: Staphylococcus aureus; experiment: Antibacterial activity against methicillin-resistant Staphylococcus aureus 1113041 clinical isolate after 20 to 24 hrs by two-fold microdilution method
# [11] = system: Staphylococcus aureus; experiment: Antibacterial activity against methicillin-resistant Staphylococcus aureus 531026 clinical isolate after 20 to 24 hrs by two-fold microdilution method
# [12] = system: Staphylococcus aureus; experiment: Antibacterial activity against methicillin-resistant Staphylococcus aureus 1101016 clinical isolate after 20 to 24 hrs by two-fold microdilution method
# [13] = system: Staphylococcus aureus; experiment: Antibacterial activity against methicillin-resistant Staphylococcus aureus 305026 clinical isolate after 20 to 24 hrs by two-fold microdilution method
# [14] = system: Staphylococcus aureus; experiment: Antibacterial activity against methicillin-resistant Staphylococcus aureus ATCC 43300 after 20 to 24 hrs by two-fold microdilution method
# [15] = system: Staphylococcus aureus; experiment: Antibacterial activity against methicillin-resistant Staphylococcus aureus 316031 clinical isolate after 20 to 24 hrs by two-fold microdilution method
# [16] = system: Staphylococcus aureus; experiment: Antibacterial activity against methicillin-resistant Staphylococcus aureus 829034 clinical isolate after 20 to 24 hrs by two-fold microdilution method
# [17] = system: Staphylococcus epidermidis; experiment: Antibacterial activity against Staphylococcus epidermidis ATCC 12228 after 20 to 24 hrs by two-fold microdilution method
# [18] = system: Staphylococcus aureus; experiment: Antibacterial activity against methicillin-resistant Staphylococcus aureus 1024004-2 clinical isolate after 20 to 24 hrs by two-fold microdilution method
# [19] = system: Staphylococcus aureus; experiment: Antibacterial activity against methicillin-resistant Staphylococcus aureus 219236 clinical isolate after 20 to 24 hrs by two-fold microdilution method
# [20] = system: Streptococcus pyogenes; experiment: Antibacterial activity against Streptococcus pyogenes ATCC 19615 after 20 to 24 hrs by two-fold microdilution method
# [21] = system: Staphylococcus aureus; experiment: Antibacterial activity against methicillin-resistant Staphylococcus aureus 214026 clinical isolate after 20 to 24 hrs by two-fold microdilution method
# [22] = system: Staphylococcus aureus; experiment: Antibacterial activity against methicillin-resistant Staphylococcus aureus 1012029 clinical isolate after 20 to 24 hrs by two-fold microdilution method
# [23] = system: Staphylococcus aureus; experiment: Antibacterial activity against methicillin-resistant Staphylococcus aureus 531220 clinical isolate after 20 to 24 hrs by two-fold microdilution method
# [24] = system: Staphylococcus aureus; experiment: Antibacterial activity against methicillin-resistant Staphylococcus aureus 908046 clinical isolate after 20 to 24 hrs by two-fold microdilution method
# [25] = system: Staphylococcus aureus; experiment: Antibacterial activity against methicillin-resistant Staphylococcus aureus 118038 clinical isolate after 20 to 24 hrs by two-fold microdilution method
# [26] = system: Staphylococcus aureus; experiment: Antibacterial activity against methicillin-resistant Staphylococcus aureus 919205 clinical isolate after 20 to 24 hrs by two-fold microdilution method
# [27] = system: Staphylococcus aureus; experiment: Antibacterial activity against methicillin-resistant Staphylococcus aureus 131215 clinical isolate after 20 to 24 hrs by two-fold microdilution method
# [28] = system: Staphylococcus aureus; experiment: Antibacterial activity against methicillin-resistant Staphylococcus aureus 221022 clinical isolate after 20 to 24 hrs by two-fold microdilution method
# [29] = system: Staphylococcus aureus; experiment: Antibacterial activity against methicillin-resistant Staphylococcus aureus 112047 clinical isolate after 20 to 24 hrs by two-fold microdilution method
# [30] = system: Staphylococcus aureus; experiment: Antibacterial activity against methicillin-resistant Staphylococcus aureus 212014 clinical isolate after 20 to 24 hrs by two-fold microdilution method
# [31] = system: Staphylococcus aureus; experiment: Antibacterial activity against methicillin-resistant Staphylococcus aureus 110325 clinical isolate after 20 to 24 hrs by two-fold microdilution method
# [32] = system: Staphylococcus aureus; experiment: Antibacterial activity against methicillin-resistant Staphylococcus aureus 110414 clinical isolate after 20 to 24 hrs by two-fold microdilution method
# [33] = system: Staphylococcus aureus; experiment: Antibacterial activity against methicillin-resistant Staphylococcus aureus 224001 clinical isolate after 20 to 24 hrs by two-fold microdilution method
# [34] = system: Streptococcus pneumoniae; experiment: Antibacterial activity against Streptococcus pneumoniae ATCC 6305 after 20 to 24 hrs by two-fold microdilution method
# [35] = system: Staphylococcus aureus; experiment: Antibacterial activity against methicillin-resistant Staphylococcus aureus 1128040 clinical isolate after 20 to 24 hrs by two-fold microdilution method
# [36] = system: Staphylococcus aureus; experiment: Antibacterial activity against methicillin-resistant Staphylococcus aureus 122820-2 clinical isolate after 20 to 24 hrs by two-fold microdilution method
# [37] = system: Staphylococcus aureus; experiment: Antibacterial activity against methicillin-resistant Staphylococcus aureus 110834 clinical isolate after 20 to 24 hrs by two-fold microdilution method
# [38] = system: Staphylococcus aureus; experiment: Antibacterial activity against methicillin-resistant Staphylococcus aureus 20339 clinical isolate after 20 to 24 hrs by two-fold microdilution method
# [39] = system: Escherichia coli; experiment: Antibacterial activity against Escherichia coli ATCC 25922 after 20 to 24 hrs by two-fold microdilution method
# [40] = system: Staphylococcus aureus; experiment: Antibacterial activity against methicillin-resistant Staphylococcus aureus 19950 clinical isolate after 20 to 24 hrs by two-fold microdilution method
# [41] = system: Staphylococcus aureus; experiment: Antibacterial activity against methicillin-resistant Staphylococcus aureus 20106-2 clinical isolate after 20 to 24 hrs by two-fold microdilution method
# [42] = system: Staphylococcus aureus; experiment: Antibacterial activity against methicillin-resistant Staphylococcus aureus 523005 clinical isolate after 20 to 24 hrs by two-fold microdilution method
# [43] = system: Staphylococcus aureus; experiment: Antibacterial activity against methicillin-resistant Staphylococcus aureus 3250299 clinical isolate after 20 to 24 hrs by two-fold microdilution method
# [44] = system: Staphylococcus aureus; experiment: Antibacterial activity against methicillin-resistant Staphylococcus aureus GLH14 clinical isolate after 20 to 24 hrs by two-fold microdilution method
# [45] = system: Staphylococcus aureus; experiment: Antibacterial activity against methicillin-resistant Staphylococcus aureus 110910-2 clinical isolate after 20 to 24 hrs by two-fold microdilution method
# [46] = system: Staphylococcus aureus; experiment: Antibacterial activity against methicillin-resistant Staphylococcus aureus 1215028 clinical isolate after 20 to 24 hrs by two-fold microdilution method
# [47] = system: Staphylococcus aureus; experiment: Antibacterial activity against methicillin-resistant Staphylococcus aureus 414244 clinical isolate after 20 to 24 hrs by two-fold microdilution method
compound,measurement,setting,value
O=C1c2cccnc2C(=O)c2c1c(C(=O)OCCCCCN1CCOCC1)c1ccc(Br)cn21,MIC,[1],0.031 µg/mL
same,MIC,[2],≤ 0.0078 µg/mL
same,MIC,[3],0.031 µg/mL
same,MIC,[4],0.063 µg/mL
same,MIC,[5],≤ 0.0078 µg/mL
same,MIC,[6],≤ 0.0078 µg/mL
same,MIC,[7],0.125 µg/mL
same,MIC50,[8],0.031 µg/mL
same,MIC90,[8],0.125 µg/mL
same,MIC,[9],0.125 µg/mL
same,MIC,[10],≤ 0.0078 µg/mL
same,MIC,[11],≤ 0.0078 µg/mL
same,MIC,[12],0.031 µg/mL
same,MIC,[13],0.063 µg/mL
same,MIC,[14],0.031 µg/mL
same,MIC,[15],0.031 µg/mL
same,MIC,[16],0.125 µg/mL
same,MIC,[17],≤ 0.0078 µg/mL
same,MIC,[18],0.125 µg/mL
same,MIC,[19],0.031 µg/mL
same,MIC,[20],8 µg/mL
same,MIC,[21],0.063 µg/mL
same,MIC,[22],≤ 0.0078 µg/mL
same,MIC,[23],≤ 0.0078 µg/mL
same,MIC,[24],0.031 µg/mL
same,MIC,[25],≤ 0.0078 µg/mL
same,MIC,[26],0.016 µg/mL
same,MIC,[27],0.016 µg/mL
same,MIC,[28],0.031 µg/mL
same,MIC,[29],0.031 µg/mL
same,MIC,[30],0.063 µg/mL
same,MIC,[31],≤ 0.0078 µg/mL
same,MIC,[32],0.031 µg/mL
same,MIC,[33],0.25 µg/mL
same,MIC,[34],2 µg/mL
same,MIC,[35],≤ 0.0078 µg/mL
same,MIC,[36],0.031 µg/mL
same,MIC,[37],0.031 µg/mL
same,MIC,[38],0.063 µg/mL
same,MIC,[39],8 µg/mL
same,MIC,[40],0.031 µg/mL
same,MIC,[41],0.125 µg/mL
same,MIC,[42],0.031 µg/mL
same,MIC,[43],0.031 µg/mL
same,MIC,[44],0.031 µg/mL
same,MIC,[45],≤ 0.0078 µg/mL
same,MIC,[46],≤ 0.0078 µg/mL
same,MIC,[47],0.063 µg/mL
O=C1c2cccnc2C(=O)c2c1c(C(=O)OCCCCCCN1CCOCC1)c1ccc(Br)cn21,MIC,[1],≤ 0.0078 µg/mL
same,MIC,[2],≤ 0.0078 µg/mL
same,MIC,[3],≤ 0.0078 µg/mL
same,MIC,[4],≤ 0.0078 µg/mL
same,MIC,[5],≤ 0.0078 µg/mL
same,MIC,[6],≤ 0.0078 µg/mL
same,MIC,[7],≤ 0.0078 µg/mL
same,MIC50,[8],≤ 0.0078 µg/mL
same,MIC90,[8],≤ 0.0078 µg/mL
same,MIC,[9],≤ 0.0078 µg/mL
same,MIC,[10],≤ 0.0078 µg/mL
same,MIC,[11],≤ 0.0078 µg/mL
same,MIC,[12],≤ 0.0078 µg/mL
same,MIC,[13],≤ 0.0078 µg/mL
same,MIC,[14],≤ 0.0078 µg/mL
same,MIC,[15],≤ 0.0078 µg/mL
same,MIC,[16],≤ 0.0078 µg/mL
same,MIC,[17],≤ 0.0078 µg/mL
same,MIC,[18],≤ 0.0078 µg/mL
same,MIC,[19],≤ 0.0078 µg/mL
same,MIC,[20],2 µg/mL
same,MIC,[21],≤ 0.0078 µg/mL
same,MIC,[22],≤ 0.0078 µg/mL
same,MIC,[23],≤ 0.0078 µg/mL
same,MIC,[24],≤ 0.0078 µg/mL
same,MIC,[25],≤ 0.0078 µg/mL
same,MIC,[26],≤ 0.0078 µg/mL
same,MIC,[27],0.0078 µg/mL
same,MIC,[28],≤ 0.0078 µg/mL
same,MIC,[29],≤ 0.0078 µg/mL
same,MIC,[30],≤ 0.0078 µg/mL
same,MIC,[31],≤ 0.0078 µg/mL
same,MIC,[32],≤ 0.0078 µg/mL
same,MIC,[33],≤ 0.0078 µg/mL
same,MIC,[34],0.5 µg/mL
same,MIC,[35],≤ 0.0078 µg/mL
same,MIC,[36],≤ 0.0078 µg/mL
same,MIC,[37],≤ 0.0078 µg/mL
same,MIC,[38],≤ 0.0078 µg/mL
same,MIC,[39],8 µg/mL
same,MIC,[40],≤ 0.0078 µg/mL
same,MIC,[41],≤ 0.0078 µg/mL
same,MIC,[42],≤ 0.0078 µg/mL
same,MIC,[43],≤ 0.0078 µg/mL
same,MIC,[44],≤ 0.0078 µg/mL
same,MIC,[45],≤ 0.0078 µg/mL
same,MIC,[46],≤ 0.0078 µg/mL
same,MIC,[47],≤ 0.0078 µg/mL
